Patent US12583872B2, “Photosensitizer compounds, methods of manufacture and application to plants” (NUTRIEN AG SOLUTIONS (CANADA) INC., priority 2019, dated 2026)

Experiments:
[1] = test system: dollar spot fungus (Sclerotinia homoeocarpa); experiment: Dollar spot fungus agar plate assay (amended PDA, radial growth); type: cell-based; conditions: for inhibition at 10 µM: Clarireedia homoeocarpa
Experimental: Control of dollar spot fungus (Sclerotinia homoeocarpa) with Ce6-mix-DMAE^15,17 amide and Ce6Na3 (comparative) was assessed. Treatments were amended into Potato Dextrose Agar (PDA) at desired concentrations. Then, a 5 mm diameter plug of a Sclerotinia homoeocarpa isolate (3 isolates total tested) was inoculated into the center of the amended Petri-dish and incubated at 21° C. in the dark for 24 h. After 24 h, one set of Petri-dishes (in triplicate) was left in the dark (no light) and one set was placed under illumination (light) for the remainder of the experiment (all at 21° C.). Radial growth of the fungus was monitored daily until the growth of S. homoeocarpa on non-amended PDA reached the edge of the Petri-dish. Illumination was provided by fluorescent lights emitting about 180 μmol/m^2/s photosynthetically active radiation (PAR).
Agar protocol: control of dollar spot fungus (Sclerotinia homoeocarpa) with modified Ce6 was assessed. Treatments were amended into Potato Dextrose Agar (PDA) at desired concentrations. Then, a 5 mm diameter plug of a Sclerotinia homoeocarpa isolate (3 isolates total tested) was inoculated into the center of the amended Petri-dish and incubated at 21° C. in the dark for 24 hours. After 24 hours, one set of Petri-dishes (in triplicate) was left in the dark and one set was placed under illumination for the remainder of the experiment (all at 21° C.). Radial growth of the fungus was monitored daily until the growth of S. homoeocarpa on non-amended PDA reaches the edge of the Petri-dish. Illumination was provided by fluorescent lights emitting about 180 μmol/m2/s photosynthetically active radiation (PAR).

[2] = test system: Pseudomonas syringae pv. tabaci; experiment: Relative inactivation of Pseudomonas syringae pv. tabaci in PBS (CFU count); type: cell-based; conditions: for Relative Inactivation (log[CFUcontrol mL^−1] − log[CFUtreatment mL^−1]): concentration not given; for Killing of bacteria: light treatment
Experimental: Experiments were conducted to evaluate control of the gram-negative bacterial plant pathogen Pseudomonas syringae pv. tabaci with modified Ce6. Treatments were prepared in Phosphate Buffered Saline (PBS) in 96 well plates at desired concentrations. A bacterial suspension was inoculated into the PBS and incubated at 28° C. in the dark for 30 min. After 30 min, the 96 well plate was placed under illumination for 1 hour (at 21° C.). A separate plate prepared at the same time was kept in the dark without illumination and served as dark control. Following illumination, bacterial suspensions were serially diluted and 10 μL of each dilution was spread uniformly on Tryptic Soy Agar (TSA) plates and placed in the dark in an incubator at 28° C. for 48 hours. After 48 hours, bacterial colonies were counted and results were log transformed (log colony forming units (CFU)/mL). The relative inactivation was determined by taking the difference between log CFU (PBS control) and log CFU (treatments). Sample Illumination was provided by LED lights (Heliospectra RX30) emitting about 1000 μmol/m^2/s photosynthetically active radiation (PAR). The modified Ce6 that were evaluated are the Ce6-mix-DMAE^15,17 amide, Ce6-bis-DMAE^15,17 amide and Ce6-mono-DMAE^15 amide.

[3] = test system: dollar spot fungus (Sclerotinia homoeocarpa); experiment: Dollar spot fungus broth protocol (PBS treatment, then radial growth on PDA); type: cell-based; conditions: Broth data; for inhibition at 100 µM: Clarireedia homoeocarpa
Experimental: Broth protocol: control of dollar spot fungus (Sclerotinia homoeocarpa) with modified chlorins was assessed. Treatments were prepared in Phosphate Buffered Saline (PBS) in 24 well plates (in duplicates for light vs. dark incubation) at desired concentrations. Then, a 5 mm diameter plug of a Sclerotinia homoeocarpa isolate (3 isolates total tested) was inoculated into the PBS and incubated at 21° C. in the dark for 2 hours. After 2 hours, one of the 24 well plates (with isolates in triplicate) was left in the dark and one 24 well plate was placed under illumination for 1 hour (all at 21° C.). Following illumination, fungal plugs were removed from PBS, blotted dry on sterile filter paper and transferred to non-amended Potato Dextrose Agar (PDA). Radial growth of the fungus was monitored daily until the growth of S. homoeocarpa reached the edge of the Petri-dish. Illumination was provided by LED lights emitting about 1000 μmol/m2/s photosynthetically active radiation (PAR).

[4] = test system: Kentucky bluegrass (Poa pratensis); experiment: Kentucky bluegrass tolerance to salt stress (turf quality); type: in vivo; conditions: 0.1%; 170 mM NaCl, 2 salt applications; scale 1-9 (1=dead, 9=healthy)
Experimental: Kentucky bluegrass (Poa pratensis) was grown under greenhouse conditions for ˜3 weeks. After 3 weeks, plants were sprayed with formulations and allowed to sit for 24 hours, after which the pots were placed in a 170 mM NaCl solution until the soil was saturated. The salt application was repeated again 7 days later for a total of 2 salt applications. Salinity stress was evaluated based on a turf quality scale of 1-9; where 1=dead, brown turf; 6=minimally acceptable turf quality (based on standards for golf courses or sports fields); and 9=dense, dark green turf (healthy). Data are average of 5 replicates.

[5] = test system: Pseudomonas syringae pv tabacci; experiment: Control of bacterial pathogen Pst on Arabidopsis thaliana; type: in vivo; conditions: 0.05% + surfactants (0.5% propylene glycol + 0.1% Pluronics F-127); host Arabidopsis thaliana; yellow leaves/plant
Experimental: Arabidopsis thaliana plants were grown under 12 hours:12 hours, light:dark photoperiod, under LED lights (PAR 24 μmol m^−2 s^−1), at a temperature of 25° C.±3° C. and 65% relative humidity. After 3 weeks, plants were sprayed with formulations (50% dilution in water), allowed to dry for 2 h, after which Pseudomonas syringae pv tabacci (at OD0.08 diluted in 10 mM MgCl2) was sprayed. Plants were kept under plastic domes until symptoms develop. Disease severity was rated by counting the number of yellow leaves/plant. Data are average of 3 replicas.

[6] = test system: Colletotrichum orbiculare ATC20767 (Cgm); experiment: Control of fungal pathogen Cgm on Nicotiana benthamiana; type: in vivo; conditions: 0.05% + Surfactants (0.5% propylene glycol + 0.1% Pluronics F-127) (Table 14); host Nicotiana benthamiana
Experimental: Control of the fungal plant pathogen Colletotrichum orbiculare ATC20767 (Cgm) on the host plant Nicotiana benthamiana following treatment with modified Chlorin e6 compounds was assessed. Treatments were applied to N. benthamiana plants approximately 2 h prior to inoculation with a spore suspension of Cgm. Plants were then exposed to light for a 24-hour period followed by dark incubation until disease symptoms were evident on the water treated control plants. Once disease symptoms were evident, lesions were counted and leaf area measured in order to determine the number of lesions/cm^2 leaf area. Four replicate plants were used per treatment and plants were randomized under the light source. Illumination was provided by LED lights emitting about 180 μmol/m^2/s photosynthetically active radiation (PAR).

[7] = Agar data, 10 uM, Dark (Table 5)
[8] = Agar data, 10 uM, Light (Table 5)
[9] = Light: 1 hour about 1000 μmol/m^2/s PAR after 30 min dark incubation, where no CFU were left, treatment set to 1 CFU/mL

## C=Cc1c(C)c2cc3nc(c(CC(=O)[O-])c4[nH]c(cc5nc(cc1[nH]2)C(C)=C5CC)c(C)c4C(=O)[O-])[C@@H](CCC(=O)[O-])[C@@H]3C.[Na+].[Na+].[Na+] [Ce6Na3]
[1]; [7]
  Inhibition: 26%
[1]; [8]
  Inhibition: 74%
[1]; Light, 5 μM, agar plate
  Inhibition: 39%
[1]; Light, 10 μM, agar plate
  Inhibition: 74%
[1]; Light, 31 μM, agar plate
  Inhibition: 99%
[1]; No Light, 5 μM, agar plate
  Inhibition: 13%
[1]; No Light, 10 μM, agar plate
  Inhibition: 26%
[1]; No Light, 31 μM, agar plate
  Inhibition: 44%
[2]; Dark control plate
  Relative Inactivation (log[CFUcontrol mL^−1] − log[CFUtreatment mL^−1]): −0.03 ± 0.13
[2]; [9]
  Relative Inactivation (log[CFUcontrol mL^−1] − log[CFUtreatment mL^−1]): 0.39 ± 0.29
[3]; 10 uM, Dark
  Inhibition: −4%
[3]; 10 uM, Light
  Inhibition: 53%
[3]; 100 uM, Dark
  Inhibition: 16%
[3]; 100 uM, Light
  Inhibition: 66%
[4]
  Turf Quality: 6

## C=Cc1c(C)c2cc3nc(c(CC(=O)NCCN(C)C)c4[nH]c(cc5nc(cc1[nH]2)C(C)=C5CC)c(C)c4C(=O)O)[C@@H](CCC(=O)O)[C@@H]3C [Ce6-mono-DMAE^15 amide]
[2]; Dark control plate
  Relative Inactivation (log[CFUcontrol mL^−1] − log[CFUtreatment mL^−1]): 0.21 ± 0.33
[2]; [9]
  Relative Inactivation (log[CFUcontrol mL^−1] − log[CFUtreatment mL^−1]): 7.98 ± 0.65
[2]
  Killing of bacteria: killed all bacteria
[5]
  Disease inhibition, %: 56%
[6]
  Disease inhibition, %: 94%

## C=Cc1c(C)c2cc3nc(c(CC(=O)NCCOP(=O)(O)O)c4[nH]c(cc5nc(cc1[nH]2)C(C)=C5CC)c(C)c4C(=O)O)[C@@H](CCC(=O)O)[C@@H]3C [Ce6-mono-EP OA^15]
[3]; 100 uM, Dark
  inhibition at 100 µM: -5%
[3]; 100 uM, Light
  inhibition at 100 µM: 71%

## C=Cc1c(C)c2cc3nc(c(CC(=O)NCCNCCCC)c4[nH]c(cc5nc(cc1[nH]2)C(C)=C5CC)c(C)c4C(=O)O)[C@@H](CCC(=O)O)[C@@H]3C [Ce6-mono-BAE^15 amide]
[1]; [7]
  inhibition at 10 µM: 49%
[1]; [8]
  inhibition at 10 µM: 99%

## C=Cc1c(C)c2cc3nc(c(CC(=O)NCCN(C)C)c4[nH]c(cc5nc(cc1[nH]2)C(C)=C5CC)c(C)c4C(=O)O)[C@@H](CCC(=O)NCCN(C)C)[C@@H]3C [Ce6-bis-DMAE^15,17 amide]
[2]; Dark control plate
  Relative Inactivation (log[CFUcontrol mL^−1] − log[CFUtreatment mL^−1]): 1.13 ± 0.42
[2]; [9]
  Relative Inactivation (log[CFUcontrol mL^−1] − log[CFUtreatment mL^−1]): 7.98 ± 0.65
[2]
  Killing of bacteria: killed all bacteria
